This assay deals with T1, hTRPV3 (Homo sapiens, UniProt Q8NET8).
T1 construct: The commercially available plasmid with the full-length cDNA of hTRPV3 (791 aa) (NM_001258205.2); host or cells: HEK293T
T1 sequence (Q8NET8 1-791 isoform Q8NET8-2): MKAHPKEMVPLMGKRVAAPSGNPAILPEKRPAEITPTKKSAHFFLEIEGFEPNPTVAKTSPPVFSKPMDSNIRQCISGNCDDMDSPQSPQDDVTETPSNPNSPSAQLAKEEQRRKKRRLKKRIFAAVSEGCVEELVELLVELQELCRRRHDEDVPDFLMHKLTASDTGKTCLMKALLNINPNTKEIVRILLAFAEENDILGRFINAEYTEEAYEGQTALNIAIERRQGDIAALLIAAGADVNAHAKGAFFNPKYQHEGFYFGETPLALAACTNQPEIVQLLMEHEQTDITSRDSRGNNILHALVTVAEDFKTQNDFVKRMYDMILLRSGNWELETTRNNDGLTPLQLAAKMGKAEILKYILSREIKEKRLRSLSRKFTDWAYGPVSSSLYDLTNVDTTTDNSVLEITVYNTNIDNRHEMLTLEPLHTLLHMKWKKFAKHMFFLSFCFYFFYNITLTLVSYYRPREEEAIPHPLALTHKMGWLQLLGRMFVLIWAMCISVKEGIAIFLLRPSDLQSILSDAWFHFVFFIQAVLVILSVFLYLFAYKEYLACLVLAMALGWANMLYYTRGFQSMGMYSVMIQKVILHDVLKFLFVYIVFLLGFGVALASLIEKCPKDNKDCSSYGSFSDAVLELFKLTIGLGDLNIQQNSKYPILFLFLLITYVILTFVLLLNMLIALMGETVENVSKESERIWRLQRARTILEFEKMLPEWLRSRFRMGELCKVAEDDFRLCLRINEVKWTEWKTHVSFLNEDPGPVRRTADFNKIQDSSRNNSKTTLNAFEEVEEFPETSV
Description: Whole-cell patch-clamp recording of hTRPV3 current in transfected HEK293T cells (2-APB induced). The format is cell-based. The note with it: current induced by 300 μM 2-APB, compounds tested up to 10 μM, room temperature. The essentials: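 HEK293T cells transiently expressing full-length hTRPV3, recorded by whole-cell patch clamp 18 h post-transfection at room temperature, with 130 mM NaCl/0.3 mM EDTA/3 mM HEPES pH 7.4 on both sides. Holding potential 0 mV; 400-ms steps to +80 and −80 mV every 2 s. Block of 2-APB-evoked current, tested up to 10 μM, fitted to Hill equation for IC50.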
As for `COc1ncnc(OC)c1C(=O)Nc1nc2c(s1)-c1ccc(C(F)(F)F)cc1OC21CC[S+]([O-])CC1` (stereo not shown) [compound 95, 4,6-dimethoxy-N-(1′-oxido-7-(trifluoromethyl)-2′,3′,5′,6′-tetrahydrospiro[chromeno[3,4-d]thiazole-4,4′-thiopyran]-2-yl)pyrimidine-5-carboxamide], the IC50 – broadly, the concentration needed to halve the response being measured – lay in the range of 1000 to 10000 nM. The result for `CCC1(CC)Oc2cc(C(F)(F)F)ccc2-c2nc(NC(=O)c3nccnc3OC)sc21` [compound 96, N-(4,4-diethyl-7-(trifluoromethyl)-4H-chromeno[4,3-d]thiazol-2-yl)-3-methoxypyrazine-2-carboxamide] reads 1000 to 10000 nM. The result for `[2H]C([2H])([2H])Oc1ncnc(OC([2H])([2H])[2H])c1C(=O)Nc1nc2c(s1)C(CC)(CC)Oc1cc(C(F)(F)F)ccc1-2` [compound 97, N-(4,4-diethyl-7-(trifluoromethyl)-4H-chromeno[4,3-d]thiazol-2-yl)-4,6-bis(methoxy-d3)pyrimidine-5-carboxamide] reads 100 to 1000 nM.

`CCC1(CC)Oc2cc(C(F)(F)F)ccc2-c2nc(NC(=O)c3c(OC)ccnc3OC)sc21` [compound 98, N-(4,4-diethyl-7-(trifluoromethyl)-4H-chromeno[4,3-d]thiazol-2-yl)-2,4-dimethoxynicotinamide] yielded a concentration for half-maximal inhibition (IC50) of 100 to 1000 nM. Under `COc1ncnc(OC)c1C(=O)Nc1nc2c(s1)COc1cccc(C(F)(F)F)c1-2` [compound 99, 4,6-dimethoxy-N-(9-(trifluoromethyl)-4H-chromeno[4,3-d]thiazol-2-yl)pyrimidine-5-carboxamide] stands not below 10000 nM; under `COc1ncnc(OC)c1C(=O)Nc1nc2c(s1)C(CF)(CF)Oc1cc(C(F)(F)F)ccc1-2` [compound 100], less than 100 nM. Compound `COc1ncnc(OC)c1C(=O)Nc1nc2c(s1)C1(CCC(C(=O)O)CC1)Oc1cc(C(F)(F)F)ccc1-2` (stereo not shown) [compound 101, 2-(4,6-dimethoxypyrimidine-5-carboxamido)-7-(trifluoromethyl)spiro[chromeno[4,3-d]thiazole-4,1′-cyclohexane]-4′-carboxylic acid] came in with an IC50 not below 10000 nM. Under `COc1ncnc(OC)c1C(=O)Nc1nc2c(s1)C1(CCC(C(N)=O)CC1)Oc1cc(C(F)(F)F)ccc1-2` (stereo not shown) [compound 102, 2-(4,6-dimethoxypyrimidine-5-carboxamido)-7-(trifluoromethyl)spiro[chromeno[4,3-d]thiazole-4,1′-cyclohexane]-4′-carboxamide] stands not below 10000 nM; under `CNC(=O)C1CCC2(CC1)Oc1cc(C(F)(F)F)ccc1-c1nc(NC(=O)c3c(OC)ncnc3OC)sc12` (stereo not shown) [compound 103, 2-(4,6-dimethoxypyrimidine-5-carboxamido)-N-methyl-7-(trifluoromethyl)spiro[chromeno[4,3-d]thiazole-4,1′-cyclohexane]-4′-carboxamide], 1000 to 10000 nM; under `CCOC(=O)CCCC1(C)Oc2cc(C(F)(F)F)ccc2-c2nc(NC(=O)c3c(OC)ncnc3OC)sc21` (stereo not shown) [compound 104, ethyl 4-(2-(4,6-dimethoxypyrimidine-5-carboxamido)-4-methyl-7-(trifluoromethyl)-4H-chromeno[4,3-d]thiazol-4-yl)butanoate], 100 to 1000 nM. Under `CCC1(CC)Oc2cc(C(F)F)ccc2-c2nc(NC(=O)c3c(OC)ncnc3OC)sc21` [compound 105, N-(7-(difluoromethyl)-4,4-diethyl-4H-chromeno[4,3-d]thiazol-2-yl)-4,6-dimethoxypyrimidine-5-carboxamide] stands 100 to 1000 nM.

In turn, `COc1ncnc(OC)c1C(=O)Nc1nc2c(s1)C1(CCN(C(=O)OC(C)(C)C)C1)Oc1cc(C(F)(F)F)ccc1-2` (stereo not shown) [compound 106, tert-butyl 2-(4,6-dimethoxypyrimidine-5-carboxamido)-7-(trifluoromethyl)spiro[chromeno[4,3-d]thiazole-4,3′-pyrrolidine]-1′-carboxylate] gave an IC50 of 100 to 1000 nM. In turn, `CCC1(CC)Oc2cnccc2-c2nc(NC(=O)c3c(OC)ncnc3OC)sc21` [compound 107] registered an IC50 of 1000 to 10000 nM. The result for `COc1ncnc(OC)c1C(=O)Nc1nc2c(s1)C1(COC(C)(C)OC1)Oc1cc(C(F)(F)F)ccc1-2` [compound 108, N-(2′,2′-dimethyl-7-(trifluoromethyl)spiro[chromeno[4,3-d]thiazole-4,5′-[1,3]dioxan]-2-yl)-4,6-dimethoxypyrimidine-5-carboxamide] reads 100 to 1000 nM; that for `COc1ncnc(OC)c1C(=O)Nc1nc2c(s1)C1(CCC(NC(=O)OC(C)(C)C)CC1)Oc1cc(C(F)(F)F)ccc1-2` (stereo not shown) [compound 109], 100 to 1000 nM; that for `CCC1(CC)Oc2cc(C(F)(F)F)ccc2-c2nc(NCc3c(OC)ncnc3OC)sc21` [compound 110, N-((4,6-dimethoxypyrimidin-5-yl)methyl)-4,4-diethyl-7-(trifluoromethyl)-4H-chromeno[4,3-d]thiazol-2-amine], 1000 to 10000 nM. Under `CCC1(CC)Oc2cc(C(F)(F)F)ccc2-c2nc(NC(=O)c3c(Cl)ncnc3Cl)sc21` [compound 111, 4,6-dichloro-N-(4,4-diethyl-7-(trifluoromethyl)-4H-chromeno[4,3-d]thiazol-2-yl)pyrimidine-5-carboxamide] stands 1000 to 10000 nM; under `CCC1(CC)Oc2cc(C(F)(F)F)ccc2-c2nc(NC(=O)c3c(Cl)ncnc3OC)sc21` [compound 112, 4-chloro-N-(4,4-diethyl-7-(trifluoromethyl)-4H-chromeno[4,3-d]thiazol-2-yl)-6-methoxypyrimidine-5-carboxamide], 100 to 1000 nM. The result for `COc1ncnc(OC)c1C(=O)Nc1nc2c(s1)C(CO)(CO)Oc1cc(C(F)(F)F)ccc1-2` [compound 113, N-(4,4-bis(hydroxymethyl)-7-(trifluoromethyl)-4H-chromeno[4,3-d]thiazol-2-yl)-4,6-dimethoxypyrimidine-5-carboxamide] reads 1000 to 10000 nM.

In the case of `COc1ncnc(OC)c1C(=O)Nc1nc2c(s1)C(C)(CCCC(=O)O)Oc1cc(C(F)(F)F)ccc1-2` (stereo not shown) [compound 114, 4-(2-(4,6-dimethoxypyrimidine-5-carboxamido)-4-methyl-7-(trifluoromethyl)-4H-chromeno[4,3-d]thiazol-4-yl) butanoic acid], the concentration for half-maximal inhibition (IC50) fell in the range of 1000 to 10000 nM.

Consider `COc1ncnc(OC)c1C(=O)Nc1nc2c(s1)C1(CN(C(=O)OC(C)C)C1)Oc1cc(C(F)(F)F)ccc1-2` [compound 115, isopropyl 2′-(4,6-dimethoxypyrimidine-5-carboxamido)-7′-(trifluoromethyl)spiro[azetidine-3,4′-chromeno[4,3-d]thiazole]-1-carboxylate], for which the IC50 was 100 to 1000 nM. The result for `COc1ncnc(OC)c1C(=O)Nc1nc2c(s1)C1(CCC(C(=O)N(C)C)CC1)Oc1cc(C(F)(F)F)ccc1-2` (stereo not shown) [compound 116, 2-(4,6-dimethoxypyrimidine-5-carboxamido)-N,N-dimethyl-7-(trifluoromethyl)spiro[chromeno[4,3-d]thiazole-4,1′-cyclohexane]-4′-carboxamide] reads 1000 to 10000 nM; that for `CCC1(CC)Oc2cc(C(C)=O)ccc2-c2nc(NC(=O)c3c(OC)ncnc3OC)sc21` [compound 117, N-(7-acetyl-4,4-diethyl-4H-chromeno[4,3-d]thiazol-2-yl)-4,6-dimethoxypyrimidine-5-carboxamide], 1000 to 10000 nM. Consider `COCOCC1(COCOC)Oc2cc(C(F)(F)F)ccc2-c2nc(NC(=O)c3c(OC)ncnc3OC)sc21` [compound 118], for which the half-maximal inhibitory concentration (IC50) fell in the range of 100 to 1000 nM.

Turning to `C=CCc1ncnc(OC)c1C(=O)Nc1nc2c(s1)C(CC)(CC)Oc1cc(C(F)(F)F)ccc1-2` [compound 119, 4-allyl-N-(4,4-diethyl-7-(trifluoromethyl)-4H-chromeno[4,3-d]thiazol-2-yl)-6-methoxypyrimidine-5-carboxamide], the 50% inhibitory concentration (IC50) fell in the range of 1000 to 10000 nM. For the compound `CCC1(CC)Oc2cc(C(F)(F)F)ccc2-c2nc(NC(=O)c3c(NC)ncnc3OC)sc21` [compound 120, N-(4,4-diethyl-7-(trifluoromethyl)-4H-chromeno[4,3-d]thiazol-2-yl)-4-methoxy-6-(methylamino)pyrimidine-5-carboxamide], the half-inhibitory concentration (IC50) lay within 1000 to 10000 nM. The result for `CCC1(CC)Oc2cc(C(F)(F)F)ccc2-c2nc(NC(=O)c3c(O)ncnc3OC)sc21` [compound 121, N-(4,4-diethyl-7-(trifluoromethyl)-4H-chromeno[4,3-d]thiazol-2-yl)-4-hydroxy-6-methoxypyrimidine-5-carboxamide] reads not below 10000 nM; that for `CCC1(CC)Oc2cc(C(F)(F)F)ccc2-c2nc(NC(=O)c3c(OC)ncnc3OCOC)sc21` [compound 122, N-(4,4-diethyl-7-(trifluoromethyl)-4H-chromeno[4,3-d]thiazol-2-yl)-4-methoxy-6-(methoxymethoxy)pyrimidine-5-carboxamide], not below 10000 nM.

Source of the values: patent US20260217697A1, “COMPOUNDS COMPRISING HETEROARYL RINGS AND COMPOSITIONS AND METHODS THEREOF” (lonGen Therapeutics Co., Ltd., priority 2022, published 2026).
